Each structure is given as a SMILES string. Read-outs that look alike come from different tables or passages of the source.

In one assay the target is T1, SYK kinase (Homo sapiens, UniProt P43405).
T1 construct: purchased Invitrogen PV3857
The assay is described as follows: In vitro test of the inhibition effect on SYK kinase (HTRF). Format: biochemical. The conditions noted are these: tyrosine kinase 0.0156 ng/μL, substrate 0.2 uM, ATP 2 uM, 23° C. 1 hour, read-out: Inhibit SYK kinase IC50. As for the experimental part: Experimental Example 1: In Vitro Test of the Inhibition Effect of the Example Compounds on SYK Kinase
Adenosine triphosphate concentration was controlled at 2 uM. • 4) Loaded with a Multidrop automatic dispenser, and a mixture of tyrosinase solution and tyrosine kinase-substrate-biotin/adenosine triphosphate was added in an amount of 5 ul per well, and incubated at 23° C. for 1 hour. • c) Detection phase: • 1) Added 13.33 mL of ethylenediaminetetraacetic acid solution to the Detection Buffer in the kit, added the specified amount of […] (Eu)-labeled antibody and streptavidin XL-665, and prepared the detection solution. • 2) Loaded with a Multidrop automatic dispenser, and 10 uL of the detection solution per well, incubated at 23° C. for 1 hour. It terminated the reaction of the enzyme and substrate mixture. • 3) Reading after centrifugation on a multi-function microplate reader, • d) Data Analysis: Analyzed the data with XL-Fit, and calculated the IC50 value of the compound.

For a further assay, the system named is AKT phosphorylation. The assay is described as follows: In vitro test of the inhibition effect on AKT phosphorylation (ELISA, Ramos cells). Format: cell-based. Conditions: Homo sapiens, Ramos. As for the experimental part:
Experimental Example 2: In Vitro Test of the Inhibition Effect of the Example Compounds on AKT Phosphorylation
• 2.1 Experimental Purpose: Intracellular protein kinase AKT phosphorylation detected by experiment was measured by enzyme-linked immunosorbent assay (ELISA), and the inhibition of the compound on protein kinase AKT phosphorylation was evaluated by an index of the half-cell inhibition concentration (IC50) value of the compound. • 2.2 Experimental Materials: • Cell line: Ramos cell line • Cell culture medium (RPMI1640, Invitrogen #22400-105; 10% serum Gibco #10099-141; L-glutamine 1×, Gibco #25030-081) • Experimental medium (without serum, RPM11640, Invitrogen #22400-105; L-glutamine 1×, Gibco #25030) • Lysis buffer (trishydroxymethylaminomethane hydrochloride, Invitrogen15567-1000 ml; sodium chloride, domestic; sodium deoxycholate, Sigma30970-25 G; polyethylene glycol octylphenyl ether, SigmaT9284-100 ml; dodecane sodium sulfonate, SigmaL3771; ethylenediaminetetraacetic acid, Invitrogen15575-038-100 ml; ultrapure water, MilliQ) • Protease inhibitor (Roche, 4693159001-30/BOX) • Phosphatase inhibitor mixture 2 (Sigma, P5726-5 ML) • Phosphatase inhibitor mixture 3 (Sigma, P0044-5 ML) • Goat Anti-Human immunoglobulin M (F(ab′)2 Goat Anti-Human IgM) (Jackson Immuno Research-109-006-129) • Phosphorylated AKT assay kit (Phospho-AKT 1/2/3 (ser473)) (TGR Bioscience, EKT002) • 10× Hank's balanced salt solution (Gibco #14065-056) • 96-well cell plate (Greiner #655090) • Compound V-well dilution plate (Axygen #WITP02280) • CO2 incubator (Thermo #371) • Centrifuge (Eppendorf #581 OR) • Vi-cell cell counter (Beckman Coulter) • Pipette (Eppendorf) • Pipette (Greiner) • Pipetting gun (Eppendorf) • Multi-purpose microplate reader (Envision Reader) • 2.3 Experimental procedures and methods: • a) Cell Seeding (Ramos Cells) • 1) The medium was preheated in a 37° C. water bath. Suspended cells and their culture solution were aspirated, centrifuged at 1000 rpm for 5 minutes. • 2) Aspirated the cell culture medium, added 10 mL of pre-warmed medium to the centrifuge tube, blew off the resuspended cells, pipette 1 mL of the cell suspension, and counted with Vi-cell; • 3) The Ramos cells were diluted with a medium to a density of 5×10^6/mL, and the diluted cells were added to a 96-well cell culture plate (100 μL/well) using a lance. Placed the cell plates in a 37° C., 5% CO2 incubator for overnight. • b) Cell starvation: • 1) After cultured the inoculation cells for overnight, centrifuged at 1000 rpm for 5 minutes on the next day, aspirated the original medium by a lance, added serum-free experimental medium, placed the cell plates in a 37° C., 5% CO2 incubator, and starved for overnight. • c) Compound preparation and dosing: • 1) The compound was diluted with dimethyl sulfoxide to give an initial concentration of 5 mM. A triple gradient dilution was done with compound V dilution plate to make 10 concentration points. • 2) Took another new compound V-well dilution plate, added 198 ul of serum-free experimental medium to each well, and then added 2 ul of the diluted compound above to each well, and mixed with a lance. […]

The mark [1] stands for this setting: Ramos cell line, compound 1 hour, goat anti-human IgM 10 ug/ml for 10 minutes, Phospho-AKT 1/2/3 (ser473) ELISA, read-out: Inhibit AKT phosphorylation IC50.
The mark [2] stands for this setting: read-out: Inhibit AKT phosphorylation IC50 (nM).

Turning to `Cn1c(=O)c(Nc2ccc(S(=O)(=O)N3CCCCC3)cc2)nc2ccc(-c3cn[nH]c3)cc21` [Example 38, 1-Methyl-3-((4-(piperidin-1-ylsulfonyl)phenyl)amino)-7-(1H-pyrazol-4-yl)quinoxaline-2(1H)-one], the concentration for half-maximal inhibition (IC50) (usually the midpoint of a concentration-inhibition curve) was 40 nM at SYK kinase and 343 nM with AKT phosphorylation (setting [1]).
For `Cn1c(=O)c(Nc2ccc(N3CCOCC3)cc2)nc2ccc(-c3csc(N)n3)cc21` [Example 59, 7-(2-Aminothiazol-4-yl)-1-methyl-3-((4-morpholinephenyl)amino)quinoxaline-2(1H)-one], the IC50 came to 46 nM on SYK kinase and 248 nM in the assay with AKT phosphorylation (setting [1]).
With `Cn1c(=O)c(Nc2ccc(N3CCN(C4COC4)CC3)cn2)cc2c(F)c(-c3cc[nH]n3)ccc21` [Example 9, 5-Fluoro-1-methyl-3-((5-(4-(oxetan-3-yl)piperazin-1-yl)pyridin-2-yl)amino)-6-(1H-pyrazol-3-yl)quinoline-2(1H)-one], the IC50 at SYK kinase is 12 nM; with AKT phosphorylation (setting [1]) it was 170 nM.
On the same counts, the results for `Cn1c(=O)c(Nc2ccc(C3CCOCC3)cn2)cc2cc(-c3cc[nH]n3)ccc21` [Example 3] are 40.7 nM and 323 nM.
With `Cn1c(=O)c(Nc2ccc(N3CCS(=O)(=O)CC3)cc2)nc2ccc(-c3cn[nH]c3)cc21` [Example 35, 3-((4-(1,1-Dioxothiomorpholine)phenyl)amino)-1-methyl-7-(1H-pyrazol-4-yl)quinoxaline-2(1H)-one], the results for the IC50 at SYK kinase and in the assay on AKT phosphorylation (setting [1]) were 5.1 nM and 52.2 nM, respectively.
As for `Cn1c(=O)c(Nc2ccc(N3C4CCC3CNC4)cc2)nc2ccc(-c3cn[nH]c3)cc21` [Example 54, 3-[4-(3,8-Diazabicyclo[3.2.1]octane-8-yl)aniline]-1-methyl-7-(1H-pyrazol-4-yl)quinoxaline-2(1H)-one], the figures for the half-maximal inhibitory concentration (IC50) on SYK kinase and with AKT phosphorylation (setting [1]) were 5 nM and 69 nM, respectively.
On to `Cn1c(=O)c(Nc2ccc(N3CCOCC3)cn2)cc2c(Cl)c(-c3cc[nH]n3)ccc21` [Example 7, 5-Chloro-1-methyl-3-((5-morpholinepyridin-2-yl)amino)-6-(1H-pyrazol-3-yl)quinoline-2(1H)-one], for which the 50% inhibitory concentration (IC50) is 10.3 nM at SYK kinase and 211 nM in the assay on AKT phosphorylation (setting [1]).
Consider `Cn1c(=O)c(Nc2ccc(N3CCOCC3)cc2)nc2ccc(-c3cn[nH]c3)c(F)c21` [Example 46, 8-Fluoro-1-methyl-3-((4-morpholinephenyl)amino)-7-(1H-pyrazol-4-yl)quinoxaline-2(1H)-one], for which the half-inhibitory concentration (IC50) at SYK kinase is 9.5 nM; with AKT phosphorylation (setting [1]), 114 nM.
Regarding `Cn1c(=O)c(Nc2ccc(C3(O)CCC3)cn2)cc2c(F)c(-c3cc[nH]n3)ccc21` [Example 21], the concentration for half-maximal inhibition (IC50) at SYK kinase stood at 22 nM; in the assay with AKT phosphorylation (setting [2]) it was 200 nM.
With `Cn1c(=O)c(Nc2ccc(N3CCOCC3)cc2)nc2c(F)cc(-c3cn[nH]c3)cc21` [Example 44], the IC50 at SYK kinase was found to be 4.4 nM; in the assay on AKT phosphorylation (setting [1]), 97 nM.
Consider `Cn1c(=O)c(Nc2ccc(N3CCCC(C)(C(=O)O)C3)cn2)cc2c(F)c(-c3cc[nH]n3)ccc21` (centres unmarked) [Example 17, 1-(6-((5-Fluoro-1-methyl-2-oxo-6-(1H-pyrazol-3-yl)-1,2-dihydroquinolin-3-yl)amine)pyridine-3-yl)-3-pipecoline-3-carboxylic acid], for which the IC50 on SYK kinase was 24.9 nM; in the assay with AKT phosphorylation (setting [1]) it was 255 nM.
For the compound `Cn1c(=O)c(Nc2ccc(N3CCN(C4COC4)CC3)cn2)cc2cc(-c3cc[nH]n3)ccc21` [Example 4, 1-Methyl-3-[[5-(4-(oxetan-3-yl)piperazin-1-yl]pyridin-2-yl]amino]-6-(1H-pyrazol-3-yl)quinoline-2(1H)-one], the 50% inhibitory concentration (IC50) on SYK kinase came to 34.3 nM; with AKT phosphorylation (setting [1]), 585 nM.
On to `Cn1c(=O)c(Nc2ccc(C(C)(O)C(F)(F)F)cn2)cc2c(F)c(-c3cc[nH]n3)ccc21` (single isomer, unassigned) [Example 24, 5-Fluoro-1-methyl-6-(1H-pyrazol-3-yl)-3-((5-(1,1,1-trifluoro-2-hydroxypropan-2-yl)pyridine-2-yl)amino)quinoline-2(1H)-one], for which the IC50 on SYK kinase was 12.3 nM; in the assay with AKT phosphorylation (setting [1]), 175 nM.
As for `Cn1c(=O)c(Nc2ccc(N3CCC[C@@H](C(=O)O)C3)cn2)cc2c(F)c(-c3cc[nH]n3)ccc21` [Example 18, (3R)-1-[6-[[5-fluoro-1-methyl-2-oxa-6-(1H-pyrazol-3-yl)-1,2-dihydroquinolin-3-yl)amino]pyridin-3-yl]piperidine-3-carboxylic acid], the IC50 on SYK kinase was found to be 26 nM; in the assay with AKT phosphorylation (setting [1]) it was 844 nM.
Take `Cn1c(=O)c(Nc2ccc(N3CCOCC3)cc2)nc2ccc(-c3cn[nH]c3)cc21` [Example 26, 1-Methyl-3-((4-morpholinephenyl)amino)-7-(1H-pyrazol-4-yl)quinoxaline-2(1H)-one]: the concentration for half-maximal inhibition (IC50) came to 4.2 nM at SYK kinase and 50 nM in the assay with AKT phosphorylation (setting [1]).
As to `CN1CCN(c2ccc(Nc3nc4ccc(-c5cn[nH]c5)cc4n(C)c3=O)cc2)CC1` [Example 33, 1-Methyl-3((4-(4-methylpiperazin-1-yl)phenyl)amino)-7-(1H-pyrazol-4-yl) quinoxaline-2(1H)-one], the figures for the IC50 on SYK kinase and with AKT phosphorylation (setting [2]) were 3.2 nM and 226 nM, respectively.
For the compound `Cn1c(=O)c(Nc2ccc(N3CCC(O)(C(F)(F)F)CC3)cn2)cc2c(F)c(-c3cc[nH]n3)ccc21` [Example 10, 5-Fluoro-3-[[5-[4-hydroxy-4-(trifluoromethyl)piperidin-1-yl]pyridin-2-yl]amino]-1-methyl-6-(1H-pyrazol-3-yl)quinoline-2(1H)-one], the results for the IC50 at SYK kinase and with AKT phosphorylation (setting [1]) were 30 nM and 343 nM, respectively.
Consider `Cc1[nH]ncc1-c1ccc2nc(Nc3ccc(N4CCOCC4)cc3)c(=O)n(C)c2c1` [Example 29, 1-Methyl-7-(5-methyl-1H-pyrazol-4-yl)-3-((4-morpholinephenyl)amino)quinoxaline-2(1H)-one], for which the half-maximal inhibitory concentration (IC50) on SYK kinase was 61 nM; with AKT phosphorylation (setting [1]), 233 nM.
For `Cn1c(=O)c(Nc2ccc(N3CCOCC3)cn2)cc2c(F)c(-c3cc[nH]n3)ccc21` [Example 11, 5-Fluoro-1-methyl-3-((5-morpholinopyridin-2-yl)amino)-6-(1H-pyrazol-3-yl)quinoline-2(1H)-one], the IC50 on SYK kinase came out at 15 nM; in the assay on AKT phosphorylation (setting [1]), 230 nM.
Turning to `Cn1c(=O)c(Nc2ccc(N3CCOCC3)c(F)c2)nc2ccc(-c3cn[nH]c3)cc21` [Example 48, 3-((3-Fluoro-4-morpholinephenyl)amino)-1-methyl-7-(1H-pyrazol-4-yl)quinoxaline-2(1H)-one], the values for the IC50 on SYK kinase and with AKT phosphorylation (setting [1]) were 10.5 nM and 114 nM, respectively.
`Cn1c(=O)c(Nc2ccc(N)cn2)cc2c(F)c(-c3cc[nH]n3)ccc21` [Example 16, 3-((5-Aminopyridin-2-yl)amino)-5-fluoro-1-methyl-6-(1H-pyrazol-3-yl)quinoline-2(1H)-one]: the IC50 on SYK kinase was 47.9 nM; in the assay on AKT phosphorylation (setting [1]), 197 nM.
The matching figures for `CN1CCCN(c2ccc(Nc3nc4ccc(-c5cn[nH]c5)cc4n(C)c3=O)cc2)CC1` [Example 37, 1-Methyl-3-((4-(4-methyl-1,4-diazepan-1-yl)phenyl)amino)-7-(1H-pyrazol-4-yl)quinoxaline-2(1H)-one]: 10.1 nM and 261 nM.

Values taken from patent US11091460B2, “Syk inhibitor and use method therefor” (CHIA TAI TIANQING PHARMACEUTICAL GROUP CO., LTD., priority 2017, dated 2021).
